Several values for one entry are separate records, joined by “and”; a condition that tells them apart may be missing. Identical values can stand only once. Like-named read-outs stand apart in the source and are kept apart here. One block for each molecule: values may come before it.
Experiments:
PPARγ1 = biological target: T1, PPARγ1 (Homo sapiens, UniProt P37231); experiment: PPRE-Luciferase reporter transactivation in HEK293 cells expressing PPARγ1; assay type: cell-based; conditions: for Efficacy: PPARγ transactivation with respect to the full agonist RGZ taken as 100%; for EC50: PPARγ transactivation, PPRE-Luc reporter, HEK293 expressing PPARγ1, 24 hs treatment
T1 construct: a fixed and higher amount of an exogenous, full length PPARγ1; expressed in transfected cells
T1 sequence (P37231 1-477 isoform P37231-2): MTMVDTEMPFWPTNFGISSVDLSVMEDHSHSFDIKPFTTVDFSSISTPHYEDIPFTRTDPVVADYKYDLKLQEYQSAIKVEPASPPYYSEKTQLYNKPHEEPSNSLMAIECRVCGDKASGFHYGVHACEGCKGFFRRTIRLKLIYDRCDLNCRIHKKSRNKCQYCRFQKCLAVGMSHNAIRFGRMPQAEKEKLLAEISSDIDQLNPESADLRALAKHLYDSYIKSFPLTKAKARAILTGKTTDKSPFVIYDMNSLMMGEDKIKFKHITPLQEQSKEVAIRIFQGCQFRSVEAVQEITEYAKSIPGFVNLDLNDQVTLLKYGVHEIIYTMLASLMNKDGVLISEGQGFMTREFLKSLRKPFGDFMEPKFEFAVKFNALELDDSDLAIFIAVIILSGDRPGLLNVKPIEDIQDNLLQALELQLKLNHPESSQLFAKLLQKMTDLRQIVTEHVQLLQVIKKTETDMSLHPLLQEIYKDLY
Method: These cells were selected as a model system because they express low levels of the endogenous PPAR subtypes and a fixed and higher amount of an exogenous, full length PPARγ1; the differences in luciferase activity can, thus, be referred to PPARγ1 and to the different ligands used. Twenty-four hours after transfection, cells were treated for additional 24 hs with increasing doses of each compound (Table 2).
HEK293 cells that stably express an exogenous Flag-tagged PPARγ1 from a transfected PCDNA-3 vector carrying a complete PPARγ cDNA were used for transfection experiments. PPRE-Luc plasmid contains a luciferase reporter gene whose transcription is driven by the herpes simplex thymidine kinase (TK) promoter including three copies of the PPRE designed on the sequence of Acyl-CoA oxidase gene. […] The day before transfection, HEK293 stably expressing FLAG-PPARγ1 were plated in 12-well plates to reach 70% confluence. After 24 hs, growth medium was removed and substitute with OPTI-MEM, in absence of serum and antibiotics, and cells were transfected with the luciferase reporter gene (PPRE-Luc) using lipofectamine 2000 reagent as described. […] Transfection assays were performed in triplicate and the resulting transcriptional activities measured by luciferase assay. The values were normalized by β-galactosidase assay and the average value for each triplicate was calculated.

HT-29 cells [1] = experiment: Viability / proliferation assay in HT-29 cells (cell counting); conditions: for Residual viability: remaining surviving cells
From the text: We then evaluated the antiproliferative potential of the compounds by carrying out viability assays in HT-29, a CRC-derived cell line selected as it expresses substantial amounts of PPARγ1 with respect to the α and β/δ subtypes.
After treatment, the cells were washed with PBS, trypsinized and collected in culture medium. Cells were counted by means of a Burker’s hemocytometer and by automated cell counter (Roche Applied, Penzberg, Germany)[60].
Proliferation assay carried out on HT-29 cells treated or not with the indicated compounds at different concentrations ranging from 1 to 10 µM for 48 hs. HT-29 cells exposed or not to these compounds were harvested, washed with PBS, trypsinized and collected in culture medium. Cell counting was performed by means of a Burker’s hemocytometer. Three counts for each well were made and the mean value and the standard deviation were calculated.

HT-29 cells [2] = experiment: Cell cycle analysis by flow cytometry (propidium iodide) in HT-29 cells; assay type: cell-based, human; conditions: 1 to 25 µM, 48 hs, FACS
Method: We then investigated the cell cycle changes underlying the growth inhibition caused by (R,S)-3, (S)-3 and (R,S)-7 treatment. To this goal, HT-29 cells were cultured in proliferating medium for 24 hs and exposed for additional 48 hs to a medium containing different concentrations of the three compounds.
(§1) Data are means ± SD of two independent experiments. *p ≤ 0.05, **p ≤ 0.01 compared to the control. (B) Proliferating HT-29 cells were treated or not for 48 hs with 10 µM of the indicated compounds. Protein extracts were prepared and assessed for p21^waf1/cip1 expression in Western blotting analysis. β-Actin was used for protein load normalization. The bar graphs are the mean ± SD of three independent experiments. **p ≤ 0.01 compared to the control.
(§2) HT-29 cells were plated at similar confluency and synchronized by a 48 h serum deprivation in 0.1% FBS. […] At same time, another aliquot of cells was allowed to grow again in the complete medium containing 0,1% DMSO for the same times and was used as control. After treatment, DNA cell content was evaluated by FACS analysis as previously described. Evaluation of apoptotic cells was performed by staining cell treated or not with 10 μM of the indicated compounds for 48 hs with Annexin5-V-Fitc and propidium iodide. All flow cytometry results were analyzed by FACSuite Software.

p21^waf1/cip1 [3] = experiment: Western blotting of p21waf1/cip1 in HT-29 cells; assay type: cell-based, human; conditions: 10 µM, 48 hs
Method: as §1
(§3) To better characterize the growth inhibition elicited by (R,S)-3, (S)-3 and (R,S)-7, we examined changes in the expression of proteins involved in cell cycle control (Figs 1B and 2A). […] The results paralleled those of the corresponding proteins and all together correlated with the flow cytometric data obtained in the same experimental conditions as reported in Fig. 1.
(§4) Total extracts from treated and untreated cells were obtained by lysis in Ripa buffer (150 mM NaCl, 50 mM Tris-HCl, pH 7.6, 10 mM EDTA, 1% NP-40) containing also a protease inhibitors cocktail and then centrifugated at 17,000 RCF for 10 min, at 4 °C. Total proteins in the supernatant were quantified and 80 μg of each sample were loaded on SDS-PAGE. Western blotting assays were carried out as previously reported.

cyclin D1 = experiment: Western blotting of cyclin D1 in HT-29 cells; assay type: cell-based, human; conditions: 10 µM, 48 hs
Method: as §3
Proliferating HT-29 cells were treated for 48 hs with 10 µM of the indicated compounds. Specific antibodies against cyclin D1 (A), c-Myc (B), β-catenin (C) and PPARγ (D) respectively, were used in Western blotting analysis. An anti-β-actin antibody was used as a control for protein loading. The graphs of (A) and (B) represent the means ± SD of three independent experiments. **p ≤ 0.01, ***p ≤ 0.005 compared to the control. The bar graphs of (C,D) are the means ± SD of three independent experiments. *p ≤ 0.05 compared to the control. […] Luciferase activity is reported as fold induction after normalization to β-galactosidase activity used as control of transfection efficiency. […]
as §4, with “Western blotting assays were carried out as previously reported.” left out

c-Myc = experiment: Western blotting of c-Myc in HT-29 cells; assay type: cell-based, human; conditions: 10 µM, 48 hs
Method: (§5) Proliferating HT-29 cells were treated for 48 hs with 10 µM of the indicated compounds. Specific antibodies against cyclin D1 (A), c-Myc (B), β-catenin (C) and PPARγ (D) respectively, were used in Western blotting analysis. An anti-β-actin antibody was used as a control for protein loading. The graphs of (A) and (B) represent the means ± SD of three independent experiments. **p ≤ 0.01, ***p ≤ 0.005 compared to the control. The bar graphs of (C,D) are the means ± SD of three independent experiments. *p ≤ 0.05 compared to the control. […] Luciferase activity is reported as fold induction after normalization to β-galactosidase activity used as control of transfection efficiency. The graph represents the mean ± SD of two independent experiments performed in triplicate. *p ≤ 0.05 compared to LiCl exposure.
(§6) Indeed, cyclin D1 and c-Myc are target genes[38],[39] and, for these reasons, we evaluated c-Myc levels in untreated and treated HT-29 cells. […] Along this reasoning, we investigated β-catenin levels in the same experimental conditions. […]
as §4, with “Western blotting assays were carried out as previously reported.” left out

β-catenin = experiment: Western blotting of β-catenin in HT-29 cells; assay type: cell-based, human; conditions: 10 µM, 48 hs
Method: as §5, §6
as §4, with “Western blotting assays were carried out as previously reported.” left out

β-catenin/TCF pathway = experiment: Top-FLASH reporter luciferase assay in LiCl-induced HEK-293 cells; assay type: cell-based; conditions: HEK-293, Top-FLASH, 20 mM LiCl plus 1 µM compound, 24 hs, relative to LiCl alone
Method: as §5
To definitely confirm that (R,S)-3 and (S)-3 negatively affect c-Myc and cyclin D1 protein levels through down-regulation of their own gene transcription, we performed the TOP-flash reporter luciferase assay in LiCl-induced HEK-293 cells. […]
The Top-FLASH reporter plasmid containing three copies of TCF binding sites was transiently transfected into HEK293 cells with Lipofectamine 2000 (Invitrogen, Carlsbad, CA, USA) in 24-well plates. […] Luciferase activity was measured after 24 h of compounds treatment and normalized to β-galactosidase. […]

HT-29 cells [4] = experiment: Annexin V-FITC / propidium iodide apoptosis flow cytometry in HT-29 cells; assay type: cell-based, human; conditions: 10 µM, 48 hs
Method: (§7) (B) Early (Ann+/PI−) and late (Ann+/PI+) apoptotic cell populations were evaluated and reported in the graphic representation. The bar graphs are the means ± SD of three independent experiments. *p ≤ 0.05, **p ≤ 0.01, ***p ≤ 0.005 compared to the control. […] An anti-β-actin antibody was used as a control for protein loading. Significance is indicated as *p ≤ 0.05 compared to only vehicle. […] It is listed because a value is printed with its label.
as §2

caspase 3 = experiment: Western blotting of caspase 3 in HT-29 cells; assay type: cell-based, human; conditions: 10 µM, 48 hs
Method: as §7, §4

p21^waf1/cip1 [5] = experiment: Western blotting of p21waf1/cip1 in RKO cells stably transfected with PPARG1; assay type: cell-based, human
From the text: (§8) RKO cells were taken as control for assessing possible effects due to other PPAR receptors expressed at low levels in this cell or to PPARγ-independent effects elicited by GW9662, as reported.
(§9) Figure 4 PPARγ-dependent antiproliferative effect in CRC-derived RKO cells. Western blotting analysis of p21^waf1/cip1 expression in total protein extracts from CRC-derived RKO cells (A) and its derived clone overexpressing an ectopic PPARγ1 (B) using an anti-p21^waf1/cip1 antibody. An anti-β-actin antibody was used as a control for protein loading. The bar graphs represent the mean ± SD of […] of at least 3 independent experiments. *p ≤ 0.05, **p ≤ 0.01 compared to the control.
as §4

p21^waf1/cip1 [6] = experiment: Western blotting of p21waf1/cip1 in parental RKO cells (no endogenous PPARG); assay type: cell-based, human; conditions: 10 µM, 48 hs
From the text: as §8, §9, §4

[7] = read-out: Proliferation IC50, HT-29 cells, concentration range 1 to 25 µM
[8] = Homo sapiens, HT-29, read-out: Proliferation IC50

SMILES: O=C(O)C(CCCc1ccccc1)Oc1ccc(Cl)cc1 (racemic) [(R,S)-2]
Efficacy (PPARγ1): 48 ± 2.1% | EC50 (PPARγ1): 0.54 ± 0.1 µM | Residual viability (HT-29 cells [1]; HT-29 cells): 70 ± 2.5% | IC50 (HT-29 cells [1]; [7]): 12.1 ± 1.2 µM

SMILES: O=C(O)C(CCCCc1ccccc1)Oc1ccc(Cl)cc1 (racemic) [(R,S)-4]
Efficacy (PPARγ1): 60 ± 1.1% | EC50 (PPARγ1): 0.35 ± 0.07 µM | Residual viability (HT-29 cells [1]; HT-29 cells): 60 ± 0.5% | IC50 (HT-29 cells [1]; [7]): 10.1 ± 0.4 µM

SMILES: O=C(O)[C@@H](CCc1ccccc1)Oc1ccc(Cl)cc1 [(R)-1]
Efficacy (PPARγ1): 45 ± 1.3% | EC50 (PPARγ1): 0.64 ± 0.06 µM | Residual viability (HT-29 cells [1]; HT-29 cells): 77 ± 3.1% | IC50 (HT-29 cells [1]; [7]): 19.7 ± 1.7 µM

Efficacy (PPARγ1): 55% and 55 ± 1.2% | EC50 (PPARγ1): 0.4 ± 0.05 µM | IC50 (HT-29 cells [1]; [8]): 4.8 ± 0.35 µM
SMILES: O=C(O)[C@H](CCCc1ccc(Cl)cc1)Oc1ccc(Cl)cc1 [(S)-3]
Cell cycle changes (HT-29 cells [2]): significant increase of cells in the sub G0/G1 phase | p21waf1/cip1 protein expression (p21^waf1/cip1 [3]): robust increase | cyclin D1 protein level (cyclin D1): reduction more evident | c-Myc protein level (c-Myc): reduction | β-catenin protein level (β-catenin): reduction | Luciferase activity remaining on co-treatment with LiCl (β-catenin/TCF pathway): about 60% | Apoptosis induction (HT-29 cells [4]): stimulated apoptosis | Caspase 3 activation (precursor reduced, cleaved form increased) (caspase 3): strongest effect | p21waf1/cip1 expression (p21^waf1/cip1 [5]; RKO clone expressing exogenous PPARγ1, 10 µM, 48 hs): induced accumulation | p21waf1/cip1 expression (p21^waf1/cip1 [6]): no p21^waf1/cip1 variations | Residual viability (HT-29 cells [1]; HT-29 cells): 31 ± 1.3%

SMILES: O=C(Nc1ccccc1)c1cc([N+](=O)[O-])ccc1Cl [GW9662, reference compound]
Effect of the antagonist on compound-induced p21waf1/cip1 accumulation (p21^waf1/cip1 [5]; RKO clone expressing PPARγ1, co-treatment with (R,S)-3, (S)-3 or (R,S)-7): reverted the effect

SMILES: CN(CCOc1ccc(CC2SC(=O)NC2=O)cc1)c1ccccn1 (centres unmarked) [RGZ, rosiglitazone, reference compound]
p21waf1/cip1 protein expression (p21^waf1/cip1 [3]): slight | cyclin D1 protein level (cyclin D1): reduction | Luciferase activity remaining on co-treatment with LiCl (β-catenin/TCF pathway): 80% | Apoptosis induction (HT-29 cells [4]): stimulated apoptosis | IC50 (HT-29 cells [1]; [8]): 9.8 ± 0.4 µM

— publication PMC6443668, “Chiral phenoxyacetic acid analogues inhibit colon cancer cell proliferation acting as PPARγ partial agonists” (Scientific Reports, 2019)
